Reference: US20240158446A1, “CYCLIC COMPOUND HAVING SELECTIVE INHIBITORY ACTION ON KRAS OVER HRAS AND NRAS” (CHUGAI SEIYAKU KABUSHIKI KAISHA, priority 2021, published 2024)

Columns and labels:
[1] = molecular target: GDP-bound KRAS wild-type protein (Homo sapiens, UniProt P01116); assay: Binding to KRAS by surface plasmon resonance (SPR), Single Cycle Kinetics; details: SPR, Single Cycle Kinetics, GDP-bound KRAS wild-type protein; read-out: KRAS KD
[2] = molecular target: GDP-bound HRAS wild-type protein (Homo sapiens, UniProt P01112); assay: Binding to HRAS by surface plasmon resonance (SPR), Single Cycle Kinetics; details: SPR, GDP-bound HRAS wild-type protein vs GDP-bound KRAS wild-type protein
[3] = molecular target: GDP-bound NRAS wild-type protein (Homo sapiens, UniProt P01111); assay: Binding to NRAS by surface plasmon resonance (SPR), Single Cycle Kinetics; details: SPR, GDP-bound NRAS wild-type protein vs GDP-bound KRAS wild-type protein
Chain of GDP-bound NRAS wild-type protein (P01111 whole entry): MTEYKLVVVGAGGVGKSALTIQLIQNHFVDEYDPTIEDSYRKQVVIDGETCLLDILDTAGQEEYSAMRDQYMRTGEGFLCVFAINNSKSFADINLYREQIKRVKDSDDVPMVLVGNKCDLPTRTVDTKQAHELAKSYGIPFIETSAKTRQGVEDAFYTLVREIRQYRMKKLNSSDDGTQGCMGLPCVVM

Chain of GDP-bound HRAS wild-type protein (P01112 whole entry): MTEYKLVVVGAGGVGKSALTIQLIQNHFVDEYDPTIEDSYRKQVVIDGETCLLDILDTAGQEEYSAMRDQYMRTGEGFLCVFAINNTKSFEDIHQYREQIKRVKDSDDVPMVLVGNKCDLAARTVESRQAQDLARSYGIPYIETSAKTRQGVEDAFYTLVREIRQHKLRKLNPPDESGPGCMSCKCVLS
Chain of GDP-bound KRAS wild-type protein (P01116 whole entry): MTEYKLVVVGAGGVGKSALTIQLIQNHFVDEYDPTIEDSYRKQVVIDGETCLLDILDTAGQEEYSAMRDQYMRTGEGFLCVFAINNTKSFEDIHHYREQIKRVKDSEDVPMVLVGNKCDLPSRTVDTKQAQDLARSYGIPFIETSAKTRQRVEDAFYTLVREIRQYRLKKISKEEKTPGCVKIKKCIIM

| Compound | Kd [1] [nM] | HRAS/KRAS (ratio of KD value for HRAS to KD value for KRAS) [2] | NRAS/KRAS (ratio of KD value for NRAS to KD value for KRAS) [3] |
| --- | --- | --- | --- |
| CCCN(C)C(=O)[C@@H]1CC(=O)N(C)[C@@H](C(C)C)C(=O)N[C@@H]([C@@H](C)CC)C(=O)N(C)CC(=O)N(C)[C@H]2C/C=C\CCN(C2=O)[C@@H](Cc2ccc(C(F)(F)F)cc2)C(=O)N(C)CC(=O)N[C@@H](CCc2ccc(C(F)(F)F)c(OC)c2)C(=O)N2C[C@@H](C)C[C@H]2C(=O)NC2(CCC2)C(=O)N(C)[C@@H](C2CCCC2)C(=O)N1C [PP2067] | 0.24 | A (a compound having 10 or more and less than 20 is denoted as A) | AA (a compound having 20 or more is denoted as AA) |
| CCC[C@H]1C(=O)N[C@@H]([C@@H](C)CC)C(=O)N(C)CC(=O)N(C)[C@H]2C/C=C\CCN(C2=O)[C@@H](Cc2ccc(C)cc2)C(=O)N(C)CC(=O)N[C@@H](CCc2ccc(C(F)(F)F)c(OC)c2)C(=O)N2C[C@H](OCC)C[C@H]2C(=O)NC2(CC(C)(C)C2)C(=O)N(C)[C@@H](C(CC)CC)C(=O)N(C)[C@H](C(=O)N(C)C)CC(=O)N1C [PP2068] | 0.36 | B (a compound having 3 or more and less than 10 is denoted as B) | A (a compound having 10 or more and less than 20 is denoted as A) |
| CC[C@H](C)[C@@H]1NC(=O)[C@H](C2CC2)N(C)C(=O)C[C@@H](C(=O)N(C)CC)N(C)C(=O)[C@H](C2CCCC2)N(C)C(=O)C2(CCC2)NC(=O)[C@@H]2C[C@H](C)CN2C(=O)[C@H](CCc2ccc(C(F)(F)F)c(OC)c2)NC(=O)CN(C)C(=O)[C@H](Cc2ccc(C(F)(F)F)cc2)N2CC/C=C\C[C@@H](C2=O)N(C)C(=O)CN(C)C1=O [PP2069] | 0.082 | A (a compound having 10 or more and less than 20 is denoted as A) | AA (a compound having 20 or more is denoted as AA) |
| CCCN(C)C(=O)[C@@H]1CC(=O)N(C)[C@@H](C2CC2)C(=O)N[C@@H]([C@@H](C)CC)C(=O)N(C)CC(=O)N(C)[C@H]2C/C=C\CCN(C2=O)[C@@H](Cc2ccc(C(F)(F)F)cc2)C(=O)N(C)CC(=O)N[C@@H](CCc2ccc(C(F)(F)F)c(OC)c2)C(=O)N2C[C@@H](C)C[C@H]2C(=O)NC2(CCC2)C(=O)N(C)[C@@H](C2CCCC2)C(=O)N1C [PP2070] | 0.11 | A (a compound having 10 or more and less than 20 is denoted as A) | A (a compound having 10 or more and less than 20 is denoted as A) |
| CC[C@H](C)[C@@H]1NC(=O)[C@H](C2CCC2)N(C)C(=O)C[C@@H](C(=O)N(C)CC)N(C)C(=O)[C@H](C2CCCC2)N(C)C(=O)C2(CCC2)NC(=O)[C@@H]2C[C@H](C)CN2C(=O)[C@H](CCc2ccc(C(F)(F)F)c(OC)c2)NC(=O)CN(C)C(=O)[C@H](Cc2ccc(C(F)(F)F)cc2)N2CC/C=C\C[C@@H](C2=O)N(C)C(=O)CN(C)C1=O [PP2071] | 0.1 | A (a compound having 10 or more and less than 20 is denoted as A) | A (a compound having 10 or more and less than 20 is denoted as A) |
| CCCN(C)C(=O)[C@@H]1CC(=O)N(C)[C@@H](C2CCC2)C(=O)N[C@@H]([C@@H](C)CC)C(=O)N(C)CC(=O)N(C)[C@H]2C/C=C\CCN(C2=O)[C@@H](Cc2ccc(C(F)(F)F)cc2)C(=O)N(C)CC(=O)N[C@@H](CCc2ccc(C(F)(F)F)c(OC)c2)C(=O)N2C[C@@H](C)C[C@H]2C(=O)NC2(CCC2)C(=O)N(C)[C@@H](C2CCCC2)C(=O)N1C [PP2072] | 0.12 | A (a compound having 10 or more and less than 20 is denoted as A) | A (a compound having 10 or more and less than 20 is denoted as A) |
